Data from patent US20190161516A1, “PROTEASOME INHIBITORS” (University of Kentucky Research Foundation, priority 2017, published 2019).

Key:
[1] = system: reactive astrocytes and microglia; assay: Immunohistochemical analysis of hippocampal tissues (GFAP, Iba1); assay type: in vivo, mouse
Description: Activation of neuroglia is closely linked to neuroinflammation, which is reported to be one of major factors involved in the development and progression of AD. Therefore, we set out to investigate whether LMP2 inhibitors could block the activation of astrocytes and microglia. We performed immunohistochemical analysis of hippocampal tissues isolated from the brains of both APPsw and LPS-induced mice, using GFAP and Iba1 as standard markers for reactive astrocytes and microglial, respectively.
Frozen tissues were cut into 30 μm thick sections and stored free floating in cryoprotectant solution (30% ethylenglycol, 20% glycerol, 50 mM sodium phosphate buffer, pH 7.4) at 4° C. until further use. For immunohistological staining, sections were rinsed in 1×PBS, incubated in blocking buffer (1×PBS containing 0.3% Triton X-100 and 10% normal goat serum) for 1 hr at room temperature and primary antibodies for GFAP (1:1000; Abcam) and Iba-1 (1:500; Abcam) were diluted in 1×PBS/0.3% triton X-100/5% normal goat serum and incubated over night at 4° C. […] Fluorescence imaging was performed using an Olympus XM10 monochrome fluorescence CCD camera (Olympus, Germany).

[2] = system: Aβ deposition in APPsw mouse brain; assay: Aβ in hippocampal tissues by ELISA and Thioflavin T staining; assay type: in vivo; settings: versus APPsw control, FIG. 9
Description: Given the data showing improved learning and memory of LMP2 inhibitor-treated mice and the role of Aβ deposition in memory dysfunction, we suspected that LMP2 inhibitors promote Aβ clearance in the brain of APPsw mice. To test this, we measured the expression levels of Aβ in hippocampal tissues isolated from the brains of APPsw mouse, using a ELISA-based assay and Thioflavin T (ThT) staining. […] Taken together, it appears that LMP2 inhibitors exert its anti-AD efficacy in these animal models independent of Aβ deposition. […] As a result, tau protein has become a prominent target for developing disease-modifying drugs. Given this, we wondered whether LMP2 inhibitors could block tau aggregation. To test this, we used HEK293-tau-BiFC cells to monitor the impacts of LMP2 inhibitors on tau aggregation.
Aβ1-42 levels were determined using specific ELISA Kit (Cusabio Biotech Co., Ltd., Wilmington, Del., USA). Experiments were performed according to each manufacturer's instructions. In brief, samples and standards were added into the pre-coated plate and incubated for 2 hours at 37° C. […] The absorbance was measured at 450 nm using a microplate reader (Sunrise™, TECAN, Switzerland) after adding stop solution.
Frozen brain tissues were cut into 30 μm sections by using cryostat microtome (Leica CM1850; Leica Microsystems). […] The Thioflavin T staining was examined by using a fluorescence microscope.

[3] = system: neuronal tissues from the brains of APPsw mice; assay: Cresyl violet staining of neuronal tissues; assay type: in vivo; settings: APPsw mouse model, FIG. 10
Description: Since LMP2 inhibitors had no effects on Aβ or tau aggregation, we wondered if these compounds are simply protecting neurons from cell death caused by Aβ or LPS. To examine this, we performed Cresyl violet staining experiments on neuronal tissues isolated from the brains of APPsw mice.
Frozen brain tissues were cut into 30 μm sections by using cryostat microtome (Leica CM1850; Leica Microsystems, Korea). The pieces of brain were thoroughly washed with PBS to remove the excess fixative agent, and then transferred to gelatin coated slices and stained with 0.1% Cresyl violet (2-5 minutes) to identify cortical layers and cytoarchitectural features of isocortical region. Next, the sections were washed with distill water and dehydrated by using ascending grades of ethanol (50%, 70%, 90%, and 100%) for 2 min in each grade followed by a 1-min immersion in a 1:1 mixture of absolute alcohol and xylene. The sections were then rinsed with xylene for 5-10 min and mounted with mounting medium (CYTOSEAL™ XYL; Thermo Scientific, USA). The tissue was photographed (100×) in the same areas.

[4] = system: COX-2; assay: COX-2 expression by immunohistochemical analysis of hippocampal tissues; assay type: in vivo; settings: hippocampal tissues from APPsw mouse, FIG. 11A right panel
Method: To directly verify the role of LMP2 in neuroinflammation pathways, we measured the expression of COX-2 by immunohistochemical analysis of hippocampal tissues from APPsw mouse.
Frozen tissues were cut into 30 μm thick sections and stored free floating in cryoprotectant solution (30% ethylenglycol, 20% glycerol, 50 mM sodium phosphate buffer, pH 7.4) at 4° C. until further use. For immunohistological staining, sections were rinsed in 1×PBS, incubated in blocking buffer (1×PBS containing 0.3% Triton X-100 and 10% normal goat serum) for 1 hr at room temperature and primary antibodies for GFAP (1:1000; Abcam) and Iba-1 (1:500; Abcam) were diluted in 1×PBS/0.3% triton X-100/5% normal goat serum and incubated over night at 4° C. Sections were washed with 1×PBS to wash off excessive primary antibodies, incubated with species specific peroxidase-coupled secondary antibodies (goat anti-mouse or goat anti-rabbit (1:300, Abcam)) diluted in 1×PBS/0.3% Triton X-100/5% normal goat serum and incubated for 1 h on a shaker at RT before developed with liquid diaminobezadine (DAB) (Dako, K3647). Sections were counterstained with matured hematoxylin, followed by dehydration in an ascending alcohol series before covered using Roti®-Histokitt II mounting medium. […] Fluorescence imaging was performed using an Olympus XM10 monochrome fluorescence CCD camera (Olympus, Germany).

**Q.** For `CC(=O)NCC(=O)N1CCC[C@H]1C(=O)N[C@@H](Cc1ccccc1)C(=O)N[C@@H](CC(C)C)C(=O)[C@@]1(C)CO1` [YU102], which activation of astrocytes ([1]; GFAP, FIG. 11A) is on record?
**A.** inhibits activation of astrocytes

**Q.** What about the activation of microglia ([1]; Iba1, FIG. 11B) of the same molecule?
**A.** inhibits activation of microglia

**Q.** And the Aβ deposition [2]?
**A.** no difference in Aβ deposition

**Q.** And the neuroprotective effects [3]?
**A.** no neuroprotective effects

**Q.** And the COX-2 upregulation [4]?
**A.** significantly curtails COX-2 upregulation
